Experimental findings from paper PMC5350573 (Redox Biology, 2017) are described below.

Holding throughout (assay type): biochemical
Assay [1] deals with T1, catalase (Bos taurus, UniProt P00432).
T1 sequence (P00432 2-527): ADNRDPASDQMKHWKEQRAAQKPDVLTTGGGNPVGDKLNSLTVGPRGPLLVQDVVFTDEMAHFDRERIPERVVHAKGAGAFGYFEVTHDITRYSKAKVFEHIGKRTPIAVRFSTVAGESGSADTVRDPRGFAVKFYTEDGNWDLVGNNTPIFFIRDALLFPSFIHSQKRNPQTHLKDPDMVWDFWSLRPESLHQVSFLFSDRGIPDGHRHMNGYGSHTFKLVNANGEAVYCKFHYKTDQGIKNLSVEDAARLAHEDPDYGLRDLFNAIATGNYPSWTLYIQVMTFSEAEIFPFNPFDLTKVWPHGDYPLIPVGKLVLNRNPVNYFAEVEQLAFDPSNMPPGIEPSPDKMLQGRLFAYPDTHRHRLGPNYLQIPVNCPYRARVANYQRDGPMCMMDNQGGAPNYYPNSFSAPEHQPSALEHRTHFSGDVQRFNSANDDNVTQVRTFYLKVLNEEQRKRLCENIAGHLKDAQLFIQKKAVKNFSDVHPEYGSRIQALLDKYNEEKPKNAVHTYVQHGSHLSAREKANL
In words: amperometric H2S release from SO2.

Assay [2] deals with T1, catalase. Nature of the assay: amperometric H2S release from DTT by isolated catalase.
In assay [3] the target is T1, catalase. Nature of the assay: amperometric. The settings on record: read-out: % increase at 400 μM.

Consider `O=S=O` [SO2, sulfur dioxide], for which the EC50 result on catalase [1] is “~ between 300 μM and 1 mM”.

For `O[C@H](CS)[C@H](O)CS` (racemic) [DTT, dithiothreitol], on catalase [2], the “amperometric H2S release from DTT by isolated catalase” value is recorded as “catalase concentration-dependent increase in H2S release (Fig. 7B) confirming that catalase reacts directly with DTT to generate H2S”.

With `NC(=O)C1=CN([C@@H]2O[C@H](COP(=O)(O)OP(=O)(O)OC[C@H]3O[C@@H](n4cnc5c(N)ncnc54)[C@H](OP(=O)(O)O)[C@@H]3O)[C@@H](O)[C@H]2O)C=CC1` [NADPH], the activation at 400 µM on catalase [3] was roughly 50%.
